According to US20210139484A1, “DIHYDROISOQUINOLINE-2(1H)-CARBOXAMIDE AND RELATED COMPOUNDS AND THEIR USE IN TREATING MEDICAL CONDITIONS” (GOSSAMER BIO SERVICES, INC., priority 2018, published 2021):
pIC50: −log10 of the molar value.

target: T1, human HPK1 protein (Homo sapiens, UniProt Q92918); assay: Human HPK1 protein TR-FRET assay; assay type: biochemical; conditions: 1 mM ATP, Table 19
T1 construct: recombinant human HPK1 protein (a.a. 1-346) was expressed in Sf9 insect cells; GST (N); purchased Signalchem M23-11G; host or cells: Sf9 insect cells (baculovirus)
T1 sequence (Q92918 1-346): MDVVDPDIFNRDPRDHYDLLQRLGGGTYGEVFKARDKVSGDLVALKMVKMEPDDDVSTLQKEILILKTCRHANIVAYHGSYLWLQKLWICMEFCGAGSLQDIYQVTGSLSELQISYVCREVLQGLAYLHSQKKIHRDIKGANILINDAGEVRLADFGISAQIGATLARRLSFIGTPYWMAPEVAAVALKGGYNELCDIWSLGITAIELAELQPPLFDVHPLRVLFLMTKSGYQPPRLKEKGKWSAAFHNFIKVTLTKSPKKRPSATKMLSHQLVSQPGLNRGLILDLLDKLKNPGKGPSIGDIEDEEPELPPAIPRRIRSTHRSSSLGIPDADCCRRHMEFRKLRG
Summary of the method: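 GST-tagged HPK1 (a.a. 1-346, Sf9-expressed) at 10 nM phosphorylated 100 nM ULight CREBtide with 1 mM ATP in Tris pH 7.5, MgCl2, NP-40, DTT, 1% DMSO, 60 minutes at room temperature. Phospho-Ser133 detected by Eu-antibody TR-FRET (665/615 nm ratio); IC50 from 4-parameter fit against DMSO control.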

SMILES | pIC50
Cc1cc2c(Oc3ccc4c(c3)[C@H](C)N(C(=O)Nc3cnc5c(c3)CCCN5C3CCN(C)CC3)CC4)ccnc2[nH]1 [X-8] | 5.00 to 5.30
Cc1cc2c(Oc3ccc4c(c3)[C@H](C)N(C(=O)Nc3cnc(OC5CCN(C)CC5O)c(C(F)(F)F)c3)CC4)ccnc2[nH]1 (stereo in doubt) [VI-8] | > 6.30
Cc1cc2c(Oc3ccc4c(c3)[C@H](C)N(C(=O)Nc3cnc(OC5CCN(C)CC5O)c(C(F)(F)F)c3)CC4)ccnc2[nH]1 (stereo in doubt) [VI-9] | 5.30 to 6.30
CCN1CCN(Cc2ccc(NC(=O)N3CCc4c(C)cc(Oc5ccnc6[nH]ccc56)cc4C3C)cc2C(F)(F)F)CC1 (single isomer, unassigned) [IV-4] | > 6.30
CCN1CCN(Cc2ccc(NC(=O)N3CCc4ccc(Oc5ncnn6cc(-c7cnn(C)c7)cc56)cc4C3)cc2C(F)(F)F)CC1 [II-2] | > 6.30
CCN1CCC(Oc2ccc(NC(=O)N3CCc4ccc(Oc5ccnc6[nH]ccc56)cc4[C@@H]3C)cc2C(F)F)CC1 [V-16] | 5.30 to 6.30
CCN1CCN(Cc2ccc(NC(=O)N3CCc4ccc(Oc5ccnc6[nH]c(=O)ccc56)cc4C3)cc2C(F)(F)F)CC1 [II-12] | > 6.30
Cc1cc2c(Oc3ccc4c(c3)CN(C(=O)Nc3cnc(OC5CCN(C)CC5)c(C(F)(F)F)c3)CC4C)ccnc2[nH]1 (single isomer, unassigned) [IV-39] | > 6.30
CCN1CCN(Cc2ccc(NC(=O)N3Cc4cc(Oc5ccnc6[nH]ccc56)cnc4C(C)C3)cc2C(F)(F)F)CC1 (centres unmarked) [compound 10, 3-((1H-Pyrrolo[2,3-b]pyridin-4-yl)oxy)-N-(4-((4-ethylpiperazin-1-yl)methyl)-3-(trifluoromethyl)phenyl)-8-methyl-7,8-dihydro-1,6-naphthyridine-6(5H)-carboxamide] | > 6.30
Cc1cc2c(Oc3ccc4c(c3)[C@H](C)N(C(=O)Nc3cnc(OC5CCN(C)CC5F)c(C(F)(F)F)c3)CC4)ccnc2[nH]1 (stereo in doubt) [VI-10] | 5.30 to 6.30
CCN1CCN(Cc2ccc(NC(=O)N3CCc4c(F)cc(Oc5ccnc6[nH]ccc56)cc4C3C)cc2C(F)(F)F)CC1 (centres unmarked) [IV-14] | > 6.30
Cc1cc2c(Oc3ccc4c(c3)CN(C(=O)Nc3cnc(OC5CCN(C)CC5O)c(C(F)(F)F)c3)CC4C)ccnc2[nH]1 (centres unmarked) [IV-41] | > 6.30
CCN1CCN(Cc2ccc(NC(=O)N3CCc4ccc(Sc5ncnn6cccc56)cc4C3)cc2C(F)(F)F)CC1 [X-3] | 5.30 to 6.30
Cc1cc2c(Oc3ccc4c(c3)[C@H](C)N(C(=O)Nc3cnc(OCCCN(C)C)c(C(F)(F)F)c3)CC4)ccnc2[nH]1 [VI-16] | 5.30 to 6.30
CCN1CCN(Cc2ccc(NC(=O)N3CCc4ccc(Oc5ccnn6cc(Cl)cc56)cc4C3)cc2C(F)(F)F)CC1 [II-23] | > 6.30
Cc1cc2c(Oc3ccc4c(c3)CN(C(=O)Nc3cnc(OC5CCN(C)CC5)c(C(F)(F)F)c3)CC4C)ccnc2[nH]1 (single isomer, unassigned) [IV-40] | > 6.30
CN1CCC(Oc2ccc(NC(=O)N3CCc4ccc(Oc5ncnn6cccc56)cc4C3)cc2C(F)(F)F)CC1 [II-16] | 5.30 to 6.30

Now from value to compound:

pIC50 | SMILES
> 6.30 | CCN1CCN(Cc2ccc(NC(=O)N3Cc4cc(Oc5ccnc6[nH]ncc56)cnc4C(C)C3)cc2C(F)(F)F)CC1 (centres unmarked) [VII-17]
> 6.30 | CCN1CCN(Cc2ccc(NC(=O)N3CCc4ccc(Oc5ccnc6[nH]c(C)cc56)cc4C3)cc2C(F)(F)F)CC1 [III-4]
5.30 to 6.30 | CCN1CCN(Cc2ccc(NC(=O)N3CCc4ncc(Oc5ccnc6[nH]ncc56)cc4C3C)cc2C(F)(F)F)CC1 (single isomer, unassigned) [VIII-5]
> 6.30 | CCN1CCN(Cc2ccc(NC(=O)N3CCc4c(C)cc(Oc5ccnc6[nH]ccc56)cc4C3)cc2C(F)(F)F)CC1 [III-9]
5.30 to 6.30 | CCN1CCN(Cc2ccc(NC(=O)N3CCc4ccc(Oc5c(Cl)cnc6[nH]ccc56)cc4C3)cc2C(F)(F)F)CC1 [III-7]

same assay, conditions: 1 mM ATP, Table 20

SMILES | pIC50
CN1CCN(Cc2ccc(NC(=O)N3CCc4ccc(Nc5c(F)cnc6[nH]c(-c7cnn(C)c7)cc56)cc4C3)cc2C(F)(F)F)CC1 [compound 22, 7-[[5-Fluoro-2-(1-methylpyrazol-4-yl)-1H-pyrrolo[2,3-b]pyridin-4-yl]amino]-N-[4-[(4-methylpiperazin-1-yl)methyl]-3-(trifluoromethyl)phenyl]-3,4-dihydro-1H-isoquinoline-2-carboxamide] | > 6.30
CCN1CCN(Cc2ccc(NC(=O)N3Cc4cc(Oc5ccnc6[nH]ccc56)cnc4C[C@H]3C)cc2C(F)(F)F)CC1 [XVIII-19] | > 6.30
CC[C@H]1Cc2ncc(Oc3ccnc4[nH]ccc34)cc2CN1C(=O)Nc1ccc(CN2CCN(CC)CC2)c(C(F)(F)F)c1 [XVIII-16] | > 6.30

Results, then the compound that gave them:

pIC50 | SMILES
> 6.30 | CC[C@@H]1CN(C(=O)Nc2ccc(CN3CCN(C)CC3)c(C(F)F)c2)Cc2cc(Oc3ccnc4[nH]c(CO)cc34)ccc21 [XV-8]
> 6.30 | CC[C@H]1CN(C(=O)Nc2ccc(CN3CCN(C)CC3)c(C(F)(F)F)c2)Cc2cc(Oc3ccnc4[nH]c(C(=O)N(C)CCO)cc34)cnc21 [XIV-105]
> 6.30 | CC[C@H]1CN(C(=O)Nc2ccc(CN3CCN(C)CC3)c(C(F)(F)F)c2)Cc2cc(Oc3ccnc4[nH]c(-c5cc[nH]n5)cc34)cnc21 [XIV-148]
> 6.30 | CC[C@H]1CN(C(=O)Nc2ccc(CN3CCN(C)CC3)c(C(F)F)c2)Cc2cc(Oc3ccnc4[nH]c(CO)cc34)cnc21 [XIV-47]
> 6.30 | CC[C@H]1CN(C(=O)Nc2ccc(CN3CCNCC3)c(C(F)(F)F)c2)Cc2cc(Oc3ncnc4[nH]c(C(=O)NC)cc34)cnc21 [XIV-127]
> 6.30 | CCC1CN(C(=O)Nc2ccc(CN3CCN(CC)CC3)c(C(F)(F)F)c2)Cc2cc(Oc3ccnc4[nH]c(C5CCN(C(=O)C6CC6)CC5)cc34)ccc21 (centres unmarked) [XV-40]
> 6.30 | C[C@H]1CN(C(=O)Nc2ccc(CN3CCN(C)CC3)c(C(F)(F)F)c2)Cc2cc(Oc3c(F)cnc4[nH]c(C(=O)N(C)C)cc34)ccc21 [XV-39]
> 6.30 | CC[C@@H]1CN(C(=O)Nc2cnc(OC3CCN(C)CC3)c(C(F)(F)F)c2)Cc2cc(Oc3ccnc4[nH]c(C5(O)CC5)cc34)cnc21 [XIV-77]
5.00 to 5.30 | CCN1CCN(Cc2ccc(NC(=O)N3Cc4cc(Oc5cc(N)ncc5F)cnc4C(C)C3)cc2C(F)(F)F)CC1 (single isomer, unassigned) [XIV-18]
> 6.30 | CCC1CN(C(=O)Nc2ccc(CN3CCN(CC)CC3)c(C(F)(F)F)c2)Cc2cc(Oc3ccnc4[nH]c(C(C)O)cc34)cnc21 (centres unmarked) [XIV-40]
> 6.30 | CC[C@H]1CN(C(=O)Nc2ccc(CN3CCNCC3)c(C(F)(F)F)c2)Cc2cc(Oc3ccnc4[nH]c(-c5nnc(C)o5)cc34)cnc21 [XIV-113]
> 6.30 | CC[C@@H]1CN(C(=O)Nc2ccc(CN3CCN(C)CC3)c(C(F)(F)F)c2)Cc2cc(Oc3ccnc4[nH]c(C5(O)COC5)cc34)cnc21 [XIV-50]
< 5.00 | CC[C@H]1CN(C(=O)Nc2ccc(CN3CCN(CC(F)(F)F)CC3)c(C(F)(F)F)c2)Cc2cc(Oc3ccnc4[nH]c(C(=O)N(C)C)cc34)cnc21 [XIV-140]
> 6.30 | C[C@H]1CN(C(=O)Nc2ccc(CN3CCN(CCO)CC3)c(C(F)(F)F)c2)Cc2cc(Oc3ccnc4[nH]c(C#N)cc34)ccc21 [XV-36]
> 6.30 | CCN1CCN(Cc2ccc(NC(=O)N3CCc4ccc(Oc5c(F)cnc6[nH]c(-c7cnn(C)c7)cc56)cc4[C@@H]3C)cc2C(F)(F)F)CC1 [XII-2]
> 6.30 | CC[C@H]1CN(C(=O)Nc2ccc(CN3CCN(C)CC3)c(C(F)(F)F)c2)Cc2cc(Oc3ccnc4[nH]c(C(C)C)cc34)cnc21 [XIV-153]
> 6.30 | CC[C@H]1CN(C(=O)Nc2ccc(CN3CCN(CCO)CC3)c(C(F)F)c2)Cc2cc(Oc3ccnc4[nH]c(C#N)cc34)ccc21 [XV-21]
> 6.30 | CC[C@@H]1CN(C(=O)Nc2ccc(CN3CCN(CCO)CC3)c(C(F)F)c2)Cc2cc(Oc3ccnc4[nH]c(C#N)cc34)ccc21 [XV-20]
> 6.30 | CC[C@H]1CN(C(=O)Nc2ccc(CN3CCN(C)CC3)c(C(F)(F)F)c2)Cc2cc(Oc3ccnc4[nH]c(C(=O)NC)cc34)cnc21 [XIV-85]
> 6.30 | CC[C@H]1CN(C(=O)Nc2ccc(CN3CCN(CC)CC3)c(C(F)(F)F)c2)Cc2cc(Oc3ccnc4[nH]c(CCOC)cc34)cnc21 [XIV-22]
> 6.30 | CC[C@@H]1CN(C(=O)Nc2cnc(CN3CCN(CC)CC3)c(C(F)(F)F)c2)Cc2cc(Oc3ccnc4[nH]ccc34)cnc21 [XIV-9]
> 6.30 | C[C@H]1CN(C(=O)Nc2ccc(CN3CCN(C)CC3)c(C(F)(F)F)c2)Cc2cc(Oc3ccnc4[nH]c(C5(O)CC5)cc34)cnc21 [XIV-97]
> 6.30 | CCC1CN(C(=O)Nc2ccc(CN3CCN(CC)CC3)c(C(F)(F)F)c2)Cc2cc(Oc3ccnc4[nH]c(C5=CCOCC5)cc34)cnc21 (centres unmarked) [XIV-61]
> 6.30 | C[C@@H]1Cc2ccc(Oc3ccnc4[nH]c(C5(O)CC5)cc34)cc2CN1C(=O)Nc1ccc(CN2CCN(C)CC2)c(C(F)(F)F)c1 [XVI-2]
> 6.30 | C[C@@H]1Cc2ccc(Oc3ccnc4[nH]c(C(=O)N(C)C)cc34)cc2CN1C(=O)Nc1cnc(OC2CCN(C)CC2)c(C(F)(F)F)c1 [XVI-7]
> 6.30 | CC[C@@H]1CN(C(=O)Nc2ccc(CN3CCN(CC)CC3)c(C(F)(F)F)c2)Cc2cc(Oc3c(F)cnc4[nH]c(-c5cnn(C)c5)cc34)cnc21 [XIV-39]
> 6.30 | CC[C@H]1CN(C(=O)Nc2ccc(CN3CCN(C)CC3)c(C(F)(F)F)c2)Cc2cc(Oc3ccnc4[nH]c(C(N)=O)cc34)cnc21 [XIV-84]
> 6.30 | CCC1CN(C(=O)Nc2ccc(CN3CCN(CC)CC3)c(C(F)(F)F)c2)Cc2cc(Oc3ncnc4[nH]c(C)cc34)cnc21 (centres unmarked) [XIV-4]
